Data reported in US11708319B2, “Biphenyl amides with modified ether groups as HSP90 inhibitors and HSP70 inducers” (THE UNIVERSITY OF KANSAS, priority 2014, dated 2023).
“Also recorded” adds a separate entry of the source.

Assays:
[1] = system: Hsp70 promoter (1.5 kb region upstream of the start codon of the human HSPA1A gene) in 50B11 cells; experiment: Luciferase reporter assay assessing Hsp70 induction; type: cell-based; details: for Hsp70 induction (luciferase), Mean: 50B11 cells treated 16 hrs, DMSO (negative control) assigned a value of 100
Protocol: The luciferase reporter assay was performed using a 1.5 kb region upstream of the start codon of the human HSPA1A gene to drive luciferase expression as previously described. 50B11 cells (Chen, et al., 2007) were grown in 10 cm dishes in maintenance medium and the cells were transfected using lipofectamine. Twenty four hour after transfection, the cells were re-seeded into 24 well plates at a density of 2×10^5 cells per well. After a 6 hrs period to permit attachment, the cells were treated with the indicated compounds for 16 hrs. Luciferase activity was assessed and normalized to the total protein concentration of each well.

[2] = system: Hsp70 protein expression in 50B11 cells; experiment: Immunoblot analysis of Hsp70 protein expression; type: cell-based; details: 24 hr, 1 μM, FIGS. 3A & 3B
Protocol: FIGS. 3A & 3B show the induction of Hsp70 protein expression by some of the compounds described herein. […] In the immunoblot analysis, 50B11 cells were treated for 24 hr with 1 μM of the indicated analogs or 250 nM geldanamycin (GDA) as a positive control. […] Results are mean±standard error of the mean (SEM) (n=6). […] The remaining para-substituted and ortho-substituted compounds were similarly effective.
50B11 cells were treated with the indicated compounds for 24 hrs and were scraped into lysis buffer containing 50 mM Tris-HCl, pH 7.4, 150 mM NaCl, 1 mM EDTA, 1% NP-40, 0.5 mM sodium orthovandate, 40 mM NaF, 10 mM β-glycerophosphate, and Complete Protease Inhibitors (Roche Diagnostics). After 15 minutes on ice, the lysates were sonicated then centrifuged at 10,000×g for 10 min at 4° C. The protein concentration of the supernatant was estimated using a Bio-Rad protein assay and bovine serum albumin as the standard. Following SDS-PAGE, the proteins were transferred to nitrocellulose and the membrane incubated with 5% non-fat dry milk in phosphate buffered saline containing 0.1% Tween 20 (PBST) for 1-2 hrs at room temperature. The blots were probed with primary antibodies recognizing Hsp70 or R-actin at 4° C. overnight. The membranes were washed with PBST and subsequently incubated with HRP-conjugated secondary antibodies and immunoreactive proteins were visualized using chemiluminescence detection (GE Healthcare Life Sciences, Little Chalfont, Buckinghamshire, UK). The films were digitally scanned and densitometrically analyzed using ImageJ (NIH) software. Client protein degradation in MCF7 cells was performed as previously described (Urban, et al., 2010).

50B11 cells = experiment: Mitochondrial bioenergetic assessment (XF96 extracellular flux analyzer, OCR and ECAR); type: cell-based; details: 24 hrs, FIG. 4
Protocol: 50B11 cells were treated for 24 hr with DMSO (1), 10 nM (2,6,10), 100 nM (3,7,11), 500 nM (4,8,12) or 1,000 nM (5,9,13) of compounds 74 (2-5), 75 (6-9) or 59 (10-13). Mitochondrial respiration was measured in the intact cells using an XF96 extracellular flux analyzer that provides concurrent measures of mitochondrial oxygen consumption rate (OCR) and extracellular acidification rate (ECAR) as an indication of glycolytic activity. Results are plotted OCR versus ECAR. The net effect of the drugs on oxidative phosphorylation and glycolysis is indicated in each quadrant. Results are mean±standard error of the mean (SEM) (n=6).
Oxygen consumption rate (OCR) was assessed in the 50B11 transformed sensory neuron cell line, using an XF96 Extracellular Flux Analyzer (Seahorse Biosciences, North Billerica, Mass.). 50B11 cells were seeded into the 96 well plates at 40,000 cells per well and maintained in high glucose DMEM supplemented with 10% fetal bovine serum (Atlas Biologics, Fort Collins Colo.), 5 μg/ml blasticidin and antibiotics at 37° C. The maintenance media was changed to serum free unbuffered DMEM supplemented with 1 mM pyruvate and 5.5 mM D-glucose and the cells incubated at 37° C. in room air for one hour before starting the assay. After introducing the plate into the XF96 analyzer, the basal oxygen consumption rate (OCR) was measured prior to the addition of 1 μg/ml oligomycin to inhibit the ATP synthase to measure the portion of the basal OCR that was coupled to ATP synthesis; residual OCR after oligomycin treatment is from uncoupled respiration (proton leak). […]
After the respiratory measures, the cells were harvested and the protein content of each well determined using a Bradford protein assay. OCR values were normalized to the total protein content of each well and ATP-linked respiration, proton leak, maximal respiratory capacity, spare respiratory capacity and respiratory control ratio were determined as described (Brand and Nicholls, 2011; Chowdhury, et al., 2012)

[3] = target: Hsp90 C-terminus nucleotide binding pocket; details: low affinity; cited from earlier work
[4] = 10 nM to 1,000 nM, FIG. 2, Table 2

SMILES	Hsp70 induction in luciferase assay (in words) [1, 4]	Hsp70 induction (luciferase), Mean ([1]; 10 nM)	Hsp70 induction (luciferase), Mean ([1]; 100 nM)	Hsp70 induction (luciferase), Mean ([1]; 500 nM)	Hsp70 induction (luciferase), Mean ([1]; 1000 nM)	Hsp70 protein expression (immunoblot, in words) [2]	other results
CC(=O)NCCc1ccc(O)cc1-c1cccc(F)c1 [Compound 20]	inactive	88.07	87.40	93.87	96.56	–	–
CC(=O)NCCc1ccc(OC2CCC(OCc3ccccc3)CC2)cc1-c1cccc(F)c1 (centres unmarked) [Compound 44, N-(2-(5-((4-(benzyloxy)cyclohexyl)oxy)-3′-fluoro-[1,1′-biphenyl]-2yl)ethyl)acetamide]	–	–	–	–	–	induced Hsp70 protein expression	Hsp70 induction in luciferase assay (in words) ([1]; 500 nM and 1,000 nM, FIG. 1): highest level of Hsp70 expression
CC(=O)NCCc1ccc(OC2CCC(OCc3ccc(Cl)cc3)CC2)cc1-c1cccc(F)c1 (centres unmarked) [Compound 59, N-(2-(5-((4-((4-chlorobenzyl)oxy)cyclohexyl)oxy)-3′-fluoro-[1,1′-biphenyl]-2-yl)ethyl)acetamide]	robust induction of luciferase activity	–	–	–	–	less effective	Cellular respiration (in words) (50B11 cells): decreased cellular respiration
CC(=O)NCCc1ccc(OC2C=CC(OCc3ccc(Cl)cc3)CC2)cc1-c1cccc(F)c1 (centres unmarked) [Compound 74]	–	–	–	–	–	equivalent levels of Hsp70 induction	–
CC(=O)NCCc1ccc(OC2CCC(OCc3ccc(Cl)cc3)[C@@H](O)[C@H]2O)cc1-c1cccc(F)c1 (stereo partly drawn) [Compound 75, N-(2-(5-(((2R,3S)-4-((4-chlorobenzyl)oxy)-2,3-dihydroxycyclohexyl)oxy)-3′-fluoro-[1,1′-biphenyl]-2-yl)ethyl)acetamide]	good induction of Hsp70	–	–	–	–	equivalent levels of Hsp70 induction; also recorded: increased Hsp70 protein expression	Oxidative phosphorylation and glycolysis (OCR versus ECAR, in words) (50B11 cells; 10 nM to 1,000 nM): more effective at dose dependently increasing oxidative phosphorylation and glycolysis; Cellular respiration (in words) (50B11 cells): increased cellular respiration
CC(=O)Nc1cc2ccc(OC3CCC(OCc4ccccc4)CC3)c(C)c2oc1=O (centres unmarked) [Compound 77]	–	146.19	106.40	102.93	100.29	–	–
CC(=O)Nc1cc2ccc(OC3CCC(OCc4ccc(Cl)cc4)CC3)c(C)c2oc1=O (centres unmarked) [Compound 78]	–	85.73	94.52	97.39	105.69	–	–
CC(=O)Nc1cc2ccc(OC3CCC(OCc4ccccc4Br)CC3)c(C)c2oc1=O (centres unmarked) [Compound 79, N-(7-((4-((2-bromobenzyl)oxy)cyclohexyl)oxy)-8-methyl-2-oxo-2H-chromen-3-yl)acetamide]	–	105.83	102.65	97.09	91.42	–	–
COc1ccccc1COC1CCC(Oc2ccc3cc(NC(C)=O)c(=O)oc3c2C)CC1 (centres unmarked) [Compound 80, N-(7-((4-((2-methoxybenzyl)oxy)cyclohexyl)oxy)-8-methyl-2-oxo-2H-chromen-3-yl)acetamide]	–	130.87	151.51	129.16	142.77	–	–
CO[C@@H]1[C@@H](OC(N)=O)[C@@H](O)[C@H](Oc2ccc3c(O)c(NC(=O)c4ccc(O)c(CC=C(C)C)c4)c(=O)oc3c2C)OC1(C)C [novobiocin]	–	–	–	–	–	–	IC50 [3]: ~700 µM
